Like-named read-outs stand apart in the source and are kept apart here.
How the values were obtained:
[1] = system: primary human total T-cells; test: T-cell activation assessed by cytokine secretion (GM-CSF, IFNγ, TNFα); assay type: cell-based
In short: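 Readouts are fold change versus compound-free cells under the same stimulation: plate-bound anti-CD3 (OKT3, 10 μg/mL coating) alone or with soluble anti-CD28 at 5 μg/mL, for 48 h. Isolated human total T cells (1×10^5/well) got inhibitor 1 h beforehand at concentrations such as 10, 1.11 or 0.123 μM. Measured: GM-CSF/IFNγ/TNFα secretion, surface CD69, proliferation by dye dilution.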

[2] = system: primary human B cells; test: B cell activation assay (CD69 on anti-IgM stimulated B cells); assay type: cell-based; conditions: AUC of dose response curve (10 μM to 1 nM) of CD69 MFI normalized to DMSO control
In short: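 Negatively selected PBMC-derived B cells (>95% CD20+) treated with Cbl-b inhibitors from 10 μM to 1 nM (DMSO <0.5%) and stimulated with anti-IgM for 20 h at 37° C. CD69 MFI on CD20+ IgD+ cells by flow cytometry; dose-response AUC normalized to DMSO plus 2.5 μg/mL anti-IgM-F(ab′)2, binned A-D.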

[3] = CD3/CD28 stimulation, read-out: GM-CSF secretion
[4] = CD3/CD28 stimulation, read-out: IFNγ secretion
[5] = CD3/CD28 stimulation, read-out: TNFα secretion
[6] = CD3 alone stimulation, read-out: GM-CSF secretion
[7] = CD3 alone stimulation, read-out: IFNγ secretion
[8] = CD3 alone stimulation, read-out: TNFα secretion

Compound | fold induction at 1.11 µM [1, 3] | fold induction at 1.11 µM [1, 4] | fold induction at 1.11 µM [1, 5] | fold induction at 10 µM [1, 3] | fold induction at 10 µM [1, 4] | fold induction at 10 µM [1, 5] | fold induction at 1.11 µM [1, 6] | fold induction at 1.11 µM [1, 7] | fold induction at 1.11 µM [1, 8] | fold induction at 10 µM [1, 6] | fold induction at 10 µM [1, 7] | fold induction at 10 µM [1, 8] | CD69 MFI AUC [2]
C[C@H](Sc1nncn1C)c1cccc(NC(=O)c2cc(C(=O)N3CC[C@H](O)C3)ccn2)c1 [Compound 140, 4-[[(3S)-3-hydroxypyrrolidin-1-yl]carbonyl]-N-[3-[(1S)-1-[(4-methyl-4H-1,2,4-triazol-3-yl)sulfanyl]ethyl]phenyl]pyridine-2-carboxamide] | 2.01 to 4 | 2.01 to 3 | 2.01 to 4 | > 4 | > 4 | 2.01 to 4 | 2.01 to 4 | 3.01 to 4 | 1.51 to 2 | 2.01 to 4 | > 4 | 2.01 to 4 | A (A indicates ≤0.5)
C[C@H](Cc1nncn1C)c1cccc(NC(=O)c2cccc(CCO)n2)c1 [Compound 202, 6-(2-hydroxyethyl)-N-[3-[(2R)-1-(4-methyl-4H-1,2,4-triazol-3-yl)propan-2-yl]phenyl]pyridine-2-carboxamide] | ≤ 1.5 | < 2 | ≤ 1.5 | 1.51 to 2 | > 4 | 1.51 to 2 | ≤ 1.5 | < 2 | ≤ 1.5 | 1.51 to 2 | < 2 | ≤ 1.5 | C (C indicates 1.01-1.50)
C[C@H](Cc1nncn1C)c1cccc(N2Cc3c(ccnc3C3CC3)C2=O)c1 [Compound 257, 4-cyclopropyl-2-[3-[(1R)-1-methyl-2-(4-methyl-1,2,4-triazol-3-yl)ethyl]phenyl]-3H-pyrrolo[3,4-c]pyridin-1-one] | 2.01 to 4 | < 2 | 1.51 to 2 | > 4 | 2.01 to 3 | 2.01 to 4 | 1.51 to 2 | < 2 | ≤ 1.5 | 2.01 to 4 | 2.01 to 3 | ≤ 1.5 | B (B indicates 0.5-1.00)
Cn1cnnc1[C@@H]1C[C@@H]1c1cccc(N2Cc3c(cccc3C(F)(F)F)C2=O)c1 [Compound 282, 2-(3-((1S,2R)-2-(4-methyl-4H-1,2,4-triazol-3-yl)cyclopropyl)phenyl)-4-(trifluoromethyl)isoindolin-1-one] | 1.51 to 2 | < 2 | ≤ 1.5 | 2.01 to 4 | 2.01 to 3 | 2.01 to 4 | ≤ 1.5 | < 2 | ≤ 1.5 | 2.01 to 4 | 2.01 to 3 | ≤ 1.5 | B (B indicates 0.5-1.00)
C[C@H](Cc1nncn1C)c1ccnc(NC(=O)c2cccc(C(F)(F)F)n2)c1 [Compound 302, (R)-N-(4-(1-(4-methyl-4H-1,2,4-triazol-3-yl)propan-2-yl)pyridin-2-yl)-6-(trifluoromethyl)picolinamide] |  |  |  |  |  |  |  |  |  |  |  |  | B (B indicates 0.5-1.00)
C[C@H](Cc1nncn1C)c1cccc(NC(=O)c2nc(C(F)(F)F)c[nH]2)c1 [Compound 326, (R)-N-(3-(1-(4-methyl-4H-1,2,4-triazol-3-yl)propan-2-yl)phenyl)-4-(trifluoromethyl)-1H-imidazole-2-carboxamide] | 1.51 to 2 | < 2 | ≤ 1.5 | 2.01 to 4 | 2.01 to 3 | 2.01 to 4 | 1.51 to 2 | < 2 | ≤ 1.5 | 2.01 to 4 | 2.01 to 3 | 1.51 to 2 | A (A indicates ≤0.5)
Cn1cnnc1[C@@H]1C[C@@H]1c1cccc(N2Cc3c(ccnc3C(F)(F)F)C2=O)c1 [Compound 369, 2-{3-[(1S,2R)-2-(4-methyl-4H-1,2,4-triazol-3-yl)cyclopropyl]phenyl}-4-(trifluoromethyl)-1H,2H,3H-pyrrolo[3,4-c]pyridin-1-one] | ≤ 1.5 | < 2 | ≤ 1.5 | 2.01 to 4 | < 2 | 2.01 to 4 | ≤ 1.5 | < 2 | ≤ 1.5 | ≤ 1.5 | < 2 | 1.51 to 2 | C (C indicates 1.01-1.50)
Cc1cc2c(c(C3CC3)n1)CN(c1cccc([C@H](C)Cc3nncn3C)c1)C2=O [Compound 372, 4-cyclopropyl-6-methyl-2-{3-[(2R)-1-(4-methyl-4H-1,2,4-triazol-3-yl)propan-2-yl]phenyl}-1H,2H,3H-pyrrolo[3,4-c]pyridin-1-one] | ≤ 1.5 | < 2 | ≤ 1.5 | 2.01 to 4 | < 2 | 2.01 to 4 | ≤ 1.5 | < 2 | ≤ 1.5 | 1.51 to 2 | < 2 | ≤ 1.5 | A (A indicates ≤0.5)
CNCc1ccc(C(=O)Nc2cccc([C@H](C)Cc3nncn3C)c2)nc1C1CC1 [Compound 376, (R)-6-cyclopropyl-N-(3-(1-(4-methyl-4H-1,2,4-triazol-3-yl)propan-2-yl)phenyl)-5-((methylamino)methyl)picolinamide] | 2.01 to 4 | < 2 | 2.01 to 4 | > 4 | < 2 | 2.01 to 4 | 1.51 to 2 | 2.01 to 3 | ≤ 1.5 | 2.01 to 4 | 3.01 to 4 | 1.51 to 2 | B (B indicates 0.5-1.00)
